Assay results: patent US11446308B2, “Methods and compositions for the prevention and treatment of hearing loss” (St. Jude Children's Research Hospital, priority 2015, dated 2022)
Where two headings read alike, the source gives them in different places. Residues, ends and D or L forms follow the SMILES beside them. *: point of attachment. Cbz = O=C(OCc1ccccc1)*; CH2F = FC*

Experiments:
[1] = test system: outer hair cells (OHCs) in mouse cochlear explants; assay: Protection against cisplatin-induced hair cell loss in neonatal (P3) mouse cochlear explants; format: cell-based; conditions: for OHC survival: 24 hr cisplatin co-treatment; for IC50: read-out: Mouse Explant IC50; for OHCs protected against cisplatin (For x%): level of protection to which the stated explant IC50 refers; for Explant Cisplatin LD50: LD50, unnumbered table
[2] = test system: hair cells in zebrafish lateral line neuromasts; assay: Protection against cisplatin-induced hair cell loss in zebrafish lateral lines in vivo; conditions: 5-dpf larvae, 5 μM cisplatin
[3] = test system: hair cells in zebrafish lateral line neuromasts; conditions: for Zebrafish LD50: 5-dpf larvae
Method: The experiments were performed with 5-dpf larval zebrafish of the *AB wild-type strain. Dose-response studies were performed to find the cisplatin concentration at which most of the hair cells in each neuromast were killed in the absence of a protective compound and at the same DMSO concentration (<0.2%).
Experiments were performed in 24-well plates with 5 fish per well in volumes of 1-2 mL. Fish were incubated with 5 μM and stained with 0.005% DASPEI vital dye for 15 minutes. After two washes with egg water, fish were visualized in an epiflourescence microscope. […] Results were plotted as percent survival of hair cells in the cisplatin-treated fish relative to the untreated fish (FIG. 4A-E).

[4] = test system: HEI-OC1 cells
[5] = test system: hair cells in mouse cochlear explants
[6] = test system: HEI-OC1 cells; assay: Caspase-3/7 Glo assay, cisplatin-induced apoptosis in HEI-OC1 cell line
[7] = test system: mouse medulloblastoma neurosphere lines and human neuroblastoma cell lines; assay: Interference with cisplatin's killing function in tumor cell lines (Cell Titer Glo); format: cell-based; conditions: 48 hours, cisplatin 23 μM, compound 3×IC50
Method: FIG. 11 addresses interference with cisplatin's killing function in tumors. Four neurosphere lines derived from mouse medulloblastoma (MB) and two human neuroblastoma (NB) cell lines were tested. HEI-OC1 cell line was tested as controls.
Table 1 lists the top 18 compound hits in the screen in terms of high potency and low toxicity. The top ten compounds were further evaluated by a viability assay (Cell Titer Glo, Promega) in medulloblastoma neurosphere cell lines and neuroblastoma cell lines to test whether they inhibit the ability of cisplatin to kill the tumor cells. The majority had no antagonistic effect on cisplatin's antitumor activity (data not shown) and are therefore safe to use systemically together with cisplatin during chemotherapy to protect against cisplatin-induced hearing loss.

[8] = test system: mouse cochlear explants; conditions: cited from earlier work
[9] = cited from earlier work
[10] = test system: CDK1, 2, 4, 6 and 9; conditions: range over the kinases; cited from earlier work
[11] = Mus musculus, HEI-OC1, 22 h, read-out: HEI-OC1 IC50
[12] = P3 cochlear explants, 50 μM cisplatin, 24 hrs
[13] = Cell Titer Glo, compound without cisplatin, 40 μM to 40 nM, 22 hrs
[14] = read-out: HEI-OC1 IC50, Caspase-3/7 Glo, 50 μM cisplatin, 22 hrs
[15] = Mus musculus, 24 h, P3 cochlear explants, 50 μM cisplatin, 24 hrs
[16] = Mus musculus, HEI-OC1, read-out: HEI-OC1 IC50

Compound: Cc1oncc1C(=O)Nc1ccc(C(F)(F)F)cc1 [Compound 1, Leflunomide]
- OHC survival [1]: 100%
- Zebrafish IC50 [2]: No
- Zebrafish LD50 [3]: >5.0 µM
- HEI-OC1 LD50 ([4]; mouse, 22 h): >40 µM
- Mouse Explant LD50 ([5]; mouse, 24 h): >50 µM
- IC50 [6, 11]: 3000 nM

Compound: O=C([O-])c1cc(/N=N/c2ccc(O)c(C(=O)[O-])c2)ccc1O.[Na+].[Na+] [Compound 2, Olsalazine sodium]
- IC50 [1, 12]: ~30000 nM
- OHCs protected against cisplatin (For x%) [1]: (For 50%)
- Zebrafish IC50 [2]: No
- Zebrafish LD50 [3]: >30 µM
- HEI-OC1 LD50 [4, 13]: >40 µM
- Mouse Explant LD50 ([5]; P3 cochlear explants): >30 µM
- IC50 [6, 14]: 6200 nM

Compound: CCOc1cc2ncc(C#N)c(Nc3ccc(F)c(Cl)c3)c2cc1NC(=O)/C=C/CN(C)C [Compound 3, Pelitinib]
- IC50 [1, 15]: ~6000 nM
- OHCs protected against cisplatin (For x%) [1]: (For 50%)
- Zebrafish IC50 [2]: No
- Zebrafish LD50 [3]: <27 µM
- HEI-OC1 LD50 ([4]; mouse, 22 h): >40 µM
- Mouse Explant LD50 ([5]; mouse, 24 h): <13 µM
- IC50 [6, 11]: 600 nM

Compound: CCCCCC[C@H]1C(=O)OC(C)C(NC(=O)c2cccc(NC=O)c2O)C(=O)O[C@@H](C)C1OC(=O)CC(C)C (stereo partly drawn) [Compound 5, Antimycin A]
- IC50 [1, 15]: ~1800 nM
- OHCs protected against cisplatin (For x%) [1]: (For 31%)
- Zebrafish IC50 [2]: No
- Zebrafish LD50 [3]: <0.6 µM
- HEI-OC1 LD50 [4, 13]: >10 µM
- Mouse Explant LD50 ([5]; P3 cochlear explants): <4 µM
- IC50 [6, 11]: 40 nM

Compound: O=c1cc(CN2CCOCC2)occ1OCCCCCSc1ccnc2cc(C(F)(F)F)ccc12 [Compound 7, EHT1864]
- IC50 [1, 15]: ~10000 nM
- OHCs protected against cisplatin (For x%) [1]: (For 58%)
- Zebrafish IC50 [2]: No
- Zebrafish LD50 [3]: <1.0 µM
- interference with cisplatin anti-tumor activity [7]: no interference in all tumor cell lines (except one for Compound 7)
- HEI-OC1 LD50 ([4]; mouse, 22 h): >20 µM
- Mouse Explant LD50 ([5]; mouse, 24 h): <20 µM
- IC50 [6, 11]: 2000 nM

Compound: CC[C@H](CO)Nc1nc(NCc2ccccc2O)c2ncn(C(C)C)c2n1 [Compound 9, Olomoucine II]
- protection against cisplatin-induced hair cell loss in cochlear explants ([1]; 50 μM cisplatin, 24 hrs): protect against cisplatin-induced hair cell loss
- OHC survival [1]: 100%
- Explant Cisplatin LD50 [1]: 3,000 nM
- Zebrafish IC50 [2]: No
- Zebrafish LD50 [3]: >50 µM
- HEI-OC1 LD50 ([4]; mouse, 22 h): >40 µM
- Explant Cisplatin LD50 ([5]; mouse, 24 h): > 33000 nM
- Mouse Explant LD50 ([5]; mouse, 24 h): >33 µM
- IC50 [6, 11]: 800 nM
- IC50 [6, 16]: 800 nM

Compound: Sc1nc2ccccc2s1 [Compound 10, 2-Mercapto-benzothiazole]
- IC50 [1, 15]: > 49000 nM
- HEI-OC1 LD50 [4, 13]: >10 µM
- IC50 [6, 11]: 7000 nM

Compound: O=C1C=C2C(=CCOC2O)O1 (stereo not drawn) [Compound 11, Patulin]
- IC50 ([1]; Mus musculus, 24 h): 3000 to 9000 nM
- IC50 [6, 11]: 700 nM

Compound: OC[C@H]1OC(c2nc3ccccc3[nH]2)[C@H](O)[C@@H]1O (stereo partly drawn) [Compound 13, D-Ribofuranosyl- benzimidazole]
- IC50 [1, 15]: ~8000 nM
- OHCs protected against cisplatin (For x%) [1]: (For 76%)
- Zebrafish IC50 [2]: No
- Zebrafish LD50 [3]: >75 µM
- HEI-OC1 LD50 ([4]; mouse, 22 h): >40 µM
- IC50 [6, 11]: 4000 nM

Compound: CN(C)CCOc1ccc(-c2cc(-c3ccc4c(c3)CC/C4=N\O)c(-c3ccncc3)o2)cc1 [Compound 14]
- HEI-OC1 LD50 ([4]; mouse, 22 h): >10 µM
- IC50 [6, 11]: 1300 nM

Compound: CN[C@H](C#Cc1c(F)ccc2c1/C(=C/c1[nH]ccc1OC)C(=O)N2)CO [Compound 15]
- HEI-OC1 LD50 ([4]; mouse, 22 h): >10 µM
- IC50 [6, 11]: 100 nM

Compound: O=C(Nc1n[nH]c2nc(-c3ccc(O)cc3)c(Br)cc12)C1CC1 [Compound 16]
- HEI-OC1 LD50 ([4]; mouse, 22 h): >40 µM
- IC50 [6, 11]: 800 nM

Compound: COc1cccc(-c2c[nH]c3c(N/N=C/c4ccncc4)ncnc23)c1 [Compound 17]
- HEI-OC1 LD50 ([4]; mouse, 22 h): >40 µM
- IC50 [6, 11]: 2100 nM

Compound: CC(C)COC(=O)c1ccc2[nH]c(O)c(/C=N/c3ccc(S(N)(=O)=O)cc3)c2c1 [Compound 18]
- HEI-OC1 LD50 ([4]; mouse, 22 h): >40 µM
- IC50 [6, 11]: 3400 nM

Compound: O=c1c2ccccc2[se]n1-c1ccccc1 [Ebselen, 2-phenyl-1,2-benzisoselenazol-3-one, reference compound]
- potency in protection against cisplatin ([6]; dose response): low potency

Compound: Cc1ccc(C(=O)Cn2c3c(sc2=N)CCCC3)cc1 [Pifithrin-α, reference compound]
- damage at protective doses ([8]; 20-100 μM): damage the hair cell stereocillia
- concentrations conferring protection from cisplatin-induced cell death ([8]; mouse cochlear explants): 20 to 100 µM
- concentration for full reduction of caspase-3/7 activity ([6]; 50 μM cisplatin): 34 µM
- IC50 ([6]; read-out: IC50, reduction of caspase-3/7 activity (caspase-3 cleavage), reference compound, 50 μM cisplatin): 17000 nM

Compound: Cc1ncc(-c2ccnc(Nc3ccc(S(C)(=O)=O)cc3)n2)n1C(C)C [SJZuo-19, AZD5438]
- Explant Cisplatin LD50 [1]: ~25 nM
- Explant Cisplatin LD50 ([5]; mouse, 24 h): < 1000 nM
- oral bioavailability, F [9]: 91%

Compound: O=C(NC1CCNCC1)c1n[nH]cc1NC(=O)c1c(Cl)cccc1Cl [SJZuo-20, AT7519]
- Explant Cisplatin LD50 [1]: ~25 nM
- Explant Cisplatin LD50 ([5]; mouse, 24 h): < 1000 nM
- oral bioavailability, F [9]: < 1%
- IC50 [6, 16]: 380 nM

Compound: N.N.[Cl][Pt][Cl] [cisplatin, reference compound]
- hair cells killed ([3]; 5 μM, 20 hrs, no protective compound): 91%
- death of outer hair cells (OHCs) ([5]; 50 μM, 24 hrs): ~40%

Compound: COC(=O)C[C@H](NC(=O)[C@H](C)NC(=O)[C@@H](NC(=O)OCc1ccccc1)C(C)C)C(=O)CF [zVAD-fmk] (Cbz-Val-Ala-Asp(OMe)-CH2F)
- IC50 ([8]; read-out: IC50, inhibition of cisplatin-induced cell death in the mouse cochlea): 200 nM

Compound: Cyanocobalamin (vitamin B12) [Compound 6]
- IC50 [1, 12]: ~21000 nM
- OHCs protected against cisplatin (For x%) [1]: (For 53%)
- HEI-OC1 LD50 [4, 13]: >40 µM
- Mouse Explant LD50 ([5]; P3 cochlear explants): >21 µM
- IC50 [6, 14]: 4200 nM
